In PMC4727972, “Chronic unpredicted mild stress-induced depression alter saxagliptin pharmacokinetics and CYP450 activity in GK rats” (PeerJ, 2016):
Like-named read-outs stand apart in the source and are kept apart here.

How the values were obtained:
[1] = Pharmacokinetics of Sax in plasma after oral 0.5 mg/kg (HPLC-MS/MS, noncompartmental analysis); format: in vivo, GK rats; conditions: for AUC(0-inf) / Cmax / Tmax / MRT last / half-life / Vd/F: plasma, po; for AUC(0-inf) / Cmax / Tmax / MRT last / half-life / Vd/F / CLz/F: n = 9, mean ± SD; for MRT last: read-out: MRT0−t; for half-life: read-out: T1/2z (converted); for Vd/F: read-out: Vz/F
Experimental: All rats were fasted overnight but with free access to water. 0.5 mg/kg Sax (suspended in 5 g/L Carboxymethyl cellulose-Na) was given orally. Blood samples were collected by eye canthus at 0.17, 0.33, 0.5, 0.83, 1.17, 1.5, 2, 3, 5, 8 h. Then plasma samples were centrifuged to obtain plasma at 3,000 × g for 5 min. The samples were stored at −80 °C for analysis.
The Sax concentration was assayed by the HPLC-tandem mass spectrometry (MS/MS) method ([Gao et al., 2012]). A total of 100 µL plasma sample and 10 µL Sit (100 ng/mL) was added with 1.2 mL ethyl acetate in a centrifuge tube, vortex-mixed for 2 min and centrifuged at 10,000 × g for 3 min. The supernatant was evaporated to dry. The residue was re-dissolved with 100 µL methanol via vortex-mixed for 1 min and centrifuged at 16,000 × g for 1 min. 2.0 µL of the supernatant was injected into the HPLC-MS/MS system for analysis.
The HPLC equipped with a reverse-phase column was connected to a triple quadrupole tandem MS with an electrospray interface. The system consists of the LC system (Agilent 1260, Agilent, US) with a G1322A degasser, a G1318B auto-modifiable pump, a G1367E auto-sampler, a G1316A adjustable column temperature box, and the Agilent 6420 MS system. Chromatographic separation was achieved using a ZORBAX EP-C18 column (2.1 mm × 50 mm, 1.8 µm, Agilent). The mobile phase contained 35% methanol and 65% water (0.1% ammonium formate) with a flow rate 0.4 mL/min. The optimized conditions of MS were as follows: positive electrospray ionization (ESI^+) mode, capillary at 4,000 V, ion-spray gas temperature at 350 °C, gas flow rate at 11 L/min, and nebulizer at 15 psi. The parameters of Sax and Sit were as follows: fragmentary voltage at 110 V and 130 V, collision energy at 22 units and 18 units, respectively. The multiple-reaction monitoring mode was selected for quantifying of Sax and Sit, for which the precursor-to-product ion transitions were 316.1 → 179.9 and 407.9 → 234.9, respectively. The MassHunter Workstation software (Version B.06.00, Agilent) was used to collect and process data.
Statistical analysis and pharmacokinetics parameter analysis were performed with SPSS 16.0 (SPSS Inc., Chicago, IL, USA) and DAS 2.1 software (Drug and Statistics, Shanghai University of Traditional Chinese Medicine, Shanghai, China). Differences between the two groups were analyzed via independent-samples t Test. Data was expressed as mean ± standard deviation (SD). p < 0.05 was considered statistically significant.

liver microsomal enzyme = assay: Metabolism of Sax using liver microsomal enzyme in vitro; format: in vitro ADME, GK rats; conditions: decreased from 0.50 mg/mL
Experimental: The control and CUMS-induced rats were fasted for 12 h and killed by cervical dislocation before removal of the liver. The liver was excised, rinsed with ice-cold normal saline (0.9% NaCl, w/v), weighed for 1 g, and homogenized with 4.0 mL in a 0.05M Tris–HCl buffer (pH 7.4). The homogenate was centrifuged at 10,000 × g at 4 °C for 20 min, and the supernatant was further centrifuged at 105,000 × g at 4 °C for 60 min. The helvus sediment was reconstituted with 1.0 mL Tris–HCl buffer and stored at −80 °C for analysis.
The incubation mixtures (final volume: 500 µL) contained 1 mg/mL microsomal protein, 0.1 M phosphate buffer (PH = 7.4), 1 mM nicotinamide adenine dinucleotide phosphate (NADPH), probe drugs (1 mg/mL Phe, Ven, Nif). A total of 100 µL microsomal protein and 100 µL probe drugs were added with 250 µL phosphate buffer in a brown centrifuge tube, vortex-mixed for 1 min, and incubated at 37 °C water. After 5 min pre-incubation, the reactions were initiated by the addition of 50 µL NADPH. The incubations were performed at 37 °C for 20 min in a water bath and terminated by adding 1.4 mL cold ethyl acetate and 20 µL Lor (5 µg/mL). […]
It is well known that Sax is mainly metabolized by cytochrome 3A enzyme in the liver. […] Considering of the complicacy of metabolic system in vivo, we detected metabolism of Sax using liver microsomal enzyme in vitro with cocktails method. […]

[2] = parameters: method as in Fura et al., 2009; conditions: rats; ref Fura et al., 2009; cited from earlier work
[3] = GK, rat, 0.5 mg/kg, control group (diabetic GK rats), 0.5 mg/kg oral
[4] = GK, rat, 0.5 mg/kg, depression group (CUMS-induced, GK rats), 0.5 mg/kg oral
[5] = depression group vs control group, 0.5 mg/kg oral, p < 0.05

Structure (SMILES): N#C[C@@H]1C[C@@H]2C[C@@H]2N1C(=O)[C@@H](N)C12CC3CC(CC(O)(C3)C1)C2 [Sax, (S)-3-hydroxyadamantylglycine-L-cis-4,5-methanoprolinenitrile]
- concentration at 5 h ([1]; GK, rat, 0.5 mg/kg, single plasma sample at 5 h after oral Sax (chromatogram, Fig. 3C), group not stated): 3.05 ng/mL
- AUC(0-inf) [1, 3]: 67.1 ± 14.1 ng·h/mL
- Cmax [1, 3]: 20.5 ± 4.61 ng/mL
- Tmax [1, 3]: 1.46 ± 0.38 h
- MRT last [1, 3]: 2.55 ± 0.32 h
- half-life [1, 3]: 104 ± 25.8 min
- Vd/F [1, 3]: 21 ± 8.22 L
- AUC(0-inf) [1, 4]: 44.6 ± 15.5 ng·h/mL
- Cmax [1, 4]: 14.8 ± 6.03 ng/mL
- Tmax [1, 4]: 1.04 ± 0.25 h
- MRT last [1, 4]: 1.95 ± 0.57 h
- half-life [1, 4]: 94.8 ± 35.4 min
- Vd/F [1, 4]: 29.8 ± 14.2 L
- CLz/F ([1]; control group (diabetic GK rats), 0.5 mg/kg oral): 7.35 ± 1.34 L/h
- CLz/F ([1]; depression group (CUMS-induced, GK rats), 0.5 mg/kg oral): 13.05 ± 6.30 L/h
- decrease of area under curve (AUC0−∞) in the depression group [1, 5]: 33%
- decrease of mean residence time (MRT0−t) in the depression group [1, 5]: 24%
- decrease of peak concentration (Cmax) in the depression group [1, 5]: 27%
- decrease of peak time (Tmax) in the depression group [1, 5]: 29%
- concentration of Sax after incubation with liver microsomal enzyme (liver microsomal enzyme; control group microsomes): 0.35 mg/mL
- concentration of Sax after incubation with liver microsomal enzyme (liver microsomal enzyme; depression group microsomes): 0.15 mg/mL
- oral bioavailability [2]: good oral bioavailability
